From US10010585B2, “Methods of treating vestibular schwannoma and reducing hearing or neurite loss caused by vestibular schwannoma” (Massachusetts Eye and Ear Infirmary, priority 2014, dated 2018)
Where “and” joins values, the source holds several entries; their conditions need not be identical. Equal values may be shown once.

Legend:
[1] = system: primary VS cells; experiment: BrdU proliferation assay in primary VS cultures; type: cell-based, human; conditions: 48 hours
Method: Proliferation rate of 12 VS cultures was assessed and correlated with the tumor volume in the latest gadolinium enhanced T1-weighted MRI scan prior to surgical resection, and with tumor growth in vivo, measured as changes in the tumor's volume over time calculated from serial MRI scans. Tumor growth was standardized by dividing the growth rate by the initial tumor volume. Separate analyses were performed for solid tumors, which generally account for approximately 96% of VSs (Charabi et al., 1994), versus all studied tumors, which included 4 out of 13 total tumors with a visible cystic component, because cystic components could misrepresent true tumor volume (Charabi et al., 1994). To determine the level of cell proliferation in the cultures, Bromodeoxyuridine (BrdU) was added to the cells at a concentration of 10 μg/ml 20 hours before the cells were fixed. The cells were kept in the dark after the addition of BrdU Immunofluorescence protocol was followed as described under ‘Immunofluorescence,’ and cell and nuclear membranes were permeablized by incubation in 1% Triton-X for 10 minutes and by incubation in 2N Hydrochloric acid for 20 minutes, respectively, after fixation. Primary antibody against BrdU (AbD Serotec, NC, 1:200) and anti-rat IgG (Life Technologies, NY, 1:1000) were used. BrdU- and Hoechst-stained nuclei were counted in 3-5 fields and the ratio of BrdU positive to Hoechst positive nuclei was used to determine the proliferation rate in vitro. […]
(§1) Cultured human primary VS cells, primary SCs and HEI-193 cells were treated with NF-κB inhibitors BAY11-7082 (BAY11) or curcumin for 48 hours (Santa Cruz Biotechnology). BAY11 or curcumin, diluted in 100% DMSO, were mixed to the accurate concentrations in warmed media and applied to the cultures (with DMSO concentration in media being 1% maximum), alongside a no-treatment control receiving media alone with appropriate corresponding DMSO levels. Experiments were performed in media fortified with antibiotics and serum (same formulation as described in Example 1 for culturing cells).
(§2) After 48 hours of treatment, primary VS and Schwann cultures were fixed for BrdU staining, to visualize proliferation, or TUNEL staining, to visualize cell death. The same methodology as described in Example 1 was utilized. Cleaved caspase 3 staining, another apoptosis marker to reinforce findings using TUNEL, was conducted using an antibody against cleaved caspase 3 following the ‘immunofluorescence’ protocol outlined in Example 1.
(§3) The cultures were incubated with the drugs for 48 hours. To label proliferating cells, BrdU was added 20 hours before fixation. pH was measured in the media after drug addition to ensure no significant deviations.
(§4) After 48 hours of treatment with salicylates, primary VS and SC cultures were fixed for BrdU staining, to visualize proliferation, or TUNEL staining, to visualize cell death. The same methodology as described in Example 1 was utilized.
To understand cross-talk between HGF and VEGF-A pathway, cultured VS cells were incubated with Life Technologies silencer select siRNAs targeting VEGFA (s461) or MET (s8700). To understand whether HGF signaling contributed to VS proliferation, cultured VS cells were treated with MET inhibitor SU11274 (Sigma-Aldrich, MO, #S9820). Seventy-two hours after siRNA treatment or 12 hours after treatment with SU11274 (2 μM), cells were incubated with 10 μg/mL BrdU (Life Technologies, NY, # B23151) for 20 hours before fixation.

[2] = system: primary VS cells; experiment: TUNEL cell death assay in primary VS cultures; type: cell-based, human; conditions: 48 hours
Method: Rate of apoptosis in 6 VS cultures was assessed and correlated with tumor growth in vivo and tumor volume. […] Apoptosis was measured using terminal deoxynucleotidyl transferase dUTP nick end labeling (TUNEL, Roche Applied Sciences, NY) following manufacturer's instructions. Briefly, immunofluorescence protocol was followed as described under ‘Immunofluorescence,’ until fixations, then the cells were washed with PBS thrice and incubated in 1% Triton-X for 10 minutes on shaker. The cells were washed with PBS once and incubated in TUNEL mix for 1 hour at 37° C., then for 30 minutes at RT on shaker. The cells were then incubated in rhodamine phalloidin (Life Technologies, NY, 1:40) and Hoechst stain for 20 minutes, washed with PBS thrice and mounted onto slides for imaging. TUNEL and Hoechst stained nuclei were counted in >3 fields and the ratio of TUNEL positive to Hoechst positive nuclei was used to determine apoptosis rate in vitro. A positive control of 10 minutes-DNAse (Roche Applied Sciences, NY) treatment prior to TUNEL labeling was utilized.
For siRNA treatment, cultured primary VS cells or HEI-193 cells were placed in antibiotic and serum free media overnight. The next day, the cells were incubated with Life Technologies siRNAs targeting NF-κB genes RELA and NF-κB1, with control cells being treated with vehicle only (Lipofectamine RNAiMax), for 5 days. Some cultures were also incubated with a fluorescent random Oligo (Life Technologies) along with vehicle to assess transfection efficiency. siRNA experiments were performed in antibiotic and serum free media.
BAY11 or curcumin, diluted in 100% DMSO, were mixed to the accurate concentrations in warmed media and applied to the cultures (with DMSO concentration in media being 1% maximum), alongside a no-treatment control receiving media alone with appropriate corresponding DMSO levels.
After 48 hours of treatment, primary VS and Schwann cultures were fixed for BrdU staining, to visualize proliferation, or TUNEL staining, to visualize cell death.
After 48 hours of treatment with salicylates, primary VS and SC cultures were fixed for BrdU staining, to visualize proliferation, or TUNEL staining, to visualize cell death.

[3] = system: primary SCs; experiment: BrdU proliferation assay in primary Schwann cell cultures; type: cell-based, human; conditions: 48 hours
Method: Proliferation rate of 12 VS cultures was assessed and correlated with the tumor volume in the latest gadolinium enhanced T1-weighted MRI scan prior to surgical resection, and with tumor growth in vivo, measured as changes in the tumor's volume over time calculated from serial MRI scans. Tumor growth was standardized by dividing the growth rate by the initial tumor volume. Separate analyses were performed for solid tumors, which generally account for approximately 96% of VSs (Charabi et al., 1994), versus all studied tumors, which included 4 out of 13 total tumors with a visible cystic component, because cystic components could misrepresent true tumor volume (Charabi et al., 1994). To determine the level of cell proliferation in the cultures, Bromodeoxyuridine (BrdU) was added to the cells at a concentration of 10 μg/ml 20 hours before the cells were fixed. The cells were kept in the dark after the addition of BrdU Immunofluorescence protocol was followed as described under ‘Immunofluorescence,’ and cell and nuclear membranes were permeablized by incubation in 1% Triton-X for 10 minutes and by incubation in 2N Hydrochloric acid for 20 minutes, respectively, after fixation. Primary antibody against BrdU (AbD Serotec, NC, 1:200) and anti-rat IgG (Life Technologies, NY, 1:1000) were used. BrdU- and Hoechst-stained nuclei were counted in 3-5 fields and the ratio of BrdU positive to Hoechst positive nuclei was used to determine the proliferation rate in vitro.
as §1, §2, §3, §4

[4] = system: COX-2; conditions: 5 mM, 48 hours, VS culture media
Method: Prostaglandin (PTG) E2 was assayed in the media of VS cultures using the Prostaglandin E2 Parameter Assay Kit (R&D Systems, KGE004B). The media was collected after 48 hours of treatment from non-treated and treated cultured cells. Manufacturer's instructions were closely followed.
as §3

[5] = system: sporadic VS; conditions: retrospective study, serial MRI scans (Kandathil et al., 2014); cited from earlier work
[6] = system: cochlear explant cultures (hair cells and neurites); experiment: Murine cochlear explant culture, hair cell, neurite and fiber damage counts; type: cell-based, CBA/CaJ mice; conditions: for number of IHCs per 100 μm length / number of OHCs / number of neurites / severity of fiber disorganization / damage: recombinant human protein 5 μg/mL, 48 hours; for severity of fiber disorganization / damage: scale 0 to 2
From the text: To develop an animal model to study hearing loss due to VS, cochlear explant cultures were established from postnatal CBA/CaJ mice aged P3-P5 (Jackson Laboratory, ME). Briefly, after decapitating the mouse, temporal bones were dissected from the skull in Hank's Balanced Salt Solution (Life Technologies, NY). The otic capsule encasing the cochlea was dissected out from each temporal bone. The otic capsule was carefully stripped away and the spiral ligament was peeled away from the entire cochlea, starting from the base. The basal turn of cochlea was then isolated using the dissecting knife (Fine Science Tools, CA), discarding the apical turn hook region. The tectorial membrane and the Reissner's membrane were removed, leaving the organ of Corti intact with the spiral ganglion neuron region. This explant was cultured onto a 10 mm glass coverslip coated with CellTak (BD Biosciences, CA, #354241) in a 35 mm culture dish with 4 wells. Cells were cultured in 98% DMEM, 1% ampicillin and 1% N2 supplement.
To assess FGF2's otoprotective effect, cochlear explant cultures were treated with recombinant human FGF2±gentamicin. After culturing the explants overnight, media fortified with FGF2 (100 ng/mL) was applied. Twenty-four hours later media fortified with gentamicin (1 mM) and FGF2 (100 ng/mL) was applied. […] Cochlear explants were fixed after an additional 24 hours of treatment, with total time being 48 hours.
After treatment, the explants were fixed and stained with antibodies against myosin 7A (Myo7A, Proteus Biosciences, CA) and β-tubulin (Tuj1, Covance, MA) to identify hair cells (HCs) and neurons, respectively. The same immunofluorescence protocol as described in Example 1 was used, with the exceptions of omission of […] HCl incubation, usage of 5% NHS with 1% Triton-X for blocking solution and 1% NHS with 0.4% Triton-X solution for primary antibody incubation at room temperature (RT). Secondary antibodies (Alexa Flour 555 anti-mouse and Alexa Four 488 anti-rabbit) were purchased from Life Technologies. Cochlear explants were imaged using a Leica TCS SP5 Confocal microscope. Zoomed-in pictures for the region of organ of Corti, including neurites, were merged in a z-stack to obtain a z-axis projection image in the Leica software. The number of hair cells (HCs) and neurites were manually counted per 100 μm length along the cochlea, with 1-2 samplings per specimen.
The same general methodology for murine cochlear explant cultures as described in Example 5 was utilized. Cochlear explant cultures were established from P2-P3 mice. Importantly, instead of only culturing the basal turn, the apical turn was also isolated, providing two pieces per cochlea with a greater frequency range. After approximately 12 hours, the cochlear explant cultures were treated for 48 hours with tumor secretions diluted to half their concentration. The formulation was 46.5% tumor-conditioned DMEM, 46.5% plain DMEM, 5% FBS, 1% ampicillin and 1% N2 supplement. Cochlear explants were treated with control media in parallel, being 46.5% DMEM incubated without tumor, 46.5% plain DMEM, 5% FBS, 1% ampicillin and 1% N2 supplement. All reagents were purchased from Life Technologies, NY. Osmolality in the solutions was measured in samples using a vapor-pressure osmometer (standardized with 290 mOsm/kg of 0.1567M sodium chloride solution) before applying them onto cochlear explants. Extra formulation for each VS secretion was made to be tested on Milliplex arrays and ELISA. Milliplex array, containing FGF2, VEGF-A and HGF beads (Millipore) and human TNFα ELISA (R&D Systems) were conducted as directed by the manufacturer on VS secretions prior to being applied onto the cochlear explant cultures.
Cochlear explants were fixed 48 hours after treatment and the same methodology for VS secretion application as described in Example 5 was utilized. […]

[7] = system: HGF; experiment: Mouse HGF ELISA on cochlear explants; type: cell-based; conditions: recombinant human protein 5 μg/mL, 48 hours; control 48.1±17.0
Method: Recombinant human VEGF-A (R&D Systems), diluted in culture media to a 5 μg/mL concentration, was applied to cochlear explants for 48 hours. The explants were fixed and the same protocol as outlined previously was followed (Example 6). […] Plain media with neutralization VEGF-A antibody and VS secretions incubated with only goat IgGs (R&D Systems, MN) were prepared simultaneously as controls. Success of VEGF-A neutralization was confirmed using ELISA.
Human VEGF-A ELISA and mouse HGF ELISA kits were purchased from R&D systems and manufacturer's protocols were followed.

[8] = system: rat cochlear explants; conditions: 1 mM (Zheng and Gao, 1996); cited from earlier work

Q: Which results are given for `CC(=O)Oc1ccccc1C(=O)O` [aspirin]?
A: proliferation, of the NT cells ([1]; 1 mM): 129.6±26.2%; proliferation, of the NT cells ([1]; 5 mM): 19% and 19.3±5.5%; cell death rate ([2]; 1 mM): 0.6±0.3%; cell death rate ([2]; 5 mM): 2.8±2.2%; normalized proliferation rate, of the NT cells ([3]; 1 mM): 124.4±72.9%; proliferation, of the NT cells ([3]; 5 mM): 198.1±141.3%; secreted PTG levels, of NT cells [4]: 3.1%; probability of VS growth in comparison to VS patients not taking aspirin [5]: approximately half

Q: Which results are given for TNFα?
A: number of IHCs per 100 μm length ([6]; apical turn): 13.2±1.0 per 100 μm; number of OHCs ([6]; apical turn): 39.1±2.2 per 100 μm; number of neurites ([6]; apical turn): 14.3±2.9 per 100 μm; severity of fiber disorganization / damage ([6]; apical turn): 0.2±0.5; number of IHCs per 100 μm length ([6]; basal turn): 12.1±2.8 per 100 μm; number of OHCs ([6]; basal turn): 31.8±14.9 per 100 μm; number of neurites ([6]; basal turn): 11.3±2.4 per 100 μm; severity of fiber disorganization / damage ([6]; basal turn): 0.8±0.4; secreted HGF levels in cochlear explants [7]: did not lead to changes

Q: Which results are given for gentamicin?
A: number of neurites per 100 μm ([6]; 1 mM gentamicin, basal turn, NT 13.1±1.7): 7.3±2.3 per 100 μm; total number of HCs per 100 μm length ([6]; 1 mM gentamicin, basal turn, NT 49.1±8.7): 10.4±7.0 per 100 μm; HC loss [8]: almost complete HC loss; neurites lost [8]: 25%
